Data taken from patent publication US12528832B2, “Crystalline or amorphous form of Bcl-2/Bcl-xL inhibitor compound or its salts” (ASCENTAGE PHARMA (SUZHOU) CO., LTD., priority 2020, dated 2026).
Counter-ions that a name gives are not always drawn.

Assays:
[1] = Stability test of salt form screening (25° C., R.T./75% RH, light; HPLC, XRPD); assay type: physicochemical
Description: Take an appropriate amount of the compound into an 8 mL glass bottle, and then place it at room temperature (25° C., open), high humidity (room temperature/75% RH, open) and light (room temperature, white light: 6980 lux, UV 282 μW/cm2). Take samples for testing on the 5th, 10th, and 30th day (HPLC, XRPD).

[2] = Hygroscopicity test, dynamic water adsorption (DVS); assay type: physicochemical
Description: Take about 10 mg of the Amorphous form XIV sample of the compound of formula I for dynamic water adsorption (DVS) test.

[3] = Stability test of amorphous form XIV (40° C., high humidity 92.5% RH, light; content, related substances); assay type: physicochemical
Description: Pack the amorphous sample with nitrogen, shading, and moisture-proof, and place it under 40° C., high humidity 92.5% RH, light conditions, and take samples at 0 days/5 days/10 days to investigate its content, related substances and crystal forms (light conditions: total illuminance≥1.2×106 Lux·hr, near ultraviolet energy≥200 w·hr/m2).

[4] = Physicochemical stability of crystalline form VI, one week storage (HPLC purity, XRPD form)
[5] = Light, room temperature, 5 Days
[6] = Light, room temperature, 10 Days
[7] = 10 Days, high humidity 92.5% RH

| Compound | Total impurities (%) ([1]; 25° C., open, 5 Days) | Total impurities (%) ([1]; 25° C., open, 10 Days) | Total impurities (%) ([1]; 25° C., open, 30 Days) | Total impurities (%) ([1]; Initial, 0 Days) | Total impurities (%) [1, 5] [%] | Total impurities (%) [1, 6] [%] | Total impurities (%) ([1]; R.T./75% RH, open, 5 Days) | Total impurities (%) ([1]; R.T./75% RH, open, 10 Days) | Total impurities (%) ([1]; R.T./75% RH, open, 30 Days) | also measured |
| --- | --- | --- | --- | --- | --- | --- | --- | --- | --- | --- |
| Cc1c(S(C)(=O)=O)c(-c2cc(F)cc(N3CCN(c4ccc(NS(=O)(=O)c5ccc(N[C@H](CCN6CCC(C(=O)OCCCP(=O)(O)O)CC6)CSc6ccccc6)c(S(=O)(=O)C(F)(F)F)c5)cc4)CC3)c2)c(-c2ccc(Cl)cc2)n1C(C)C [Amorphous form XVI of meglumine salt] | 0.95 | 0.89 | 0.88 | 0.83 | 1.33 | 1.74 | 1.36 | 1.86 | 4.95 | physical and chemical stability (summary statement) [1]: good physical and chemical stability |
| Cc1c(S(C)(=O)=O)c(-c2cc(F)cc(N3CCN(c4ccc(NS(=O)(=O)c5ccc(N[C@H](CCN6CCC(C(=O)OCCCP(=O)(O)O)CC6)CSc6ccccc6)c(S(=O)(=O)C(F)(F)F)c5)cc4)CC3)c2)c(-c2ccc(Cl)cc2)n1C(C)C [Amorphous form XII of potassium salt] | 1.63 | 1.58 | 1.86 | 1.40 | 2.09 | 2.69 | 2.25 | 2.98 | 6.11 | – |
| Cc1c(S(C)(=O)=O)c(-c2cc(F)cc(N3CCN(c4ccc(NS(=O)(=O)c5ccc(N[C@H](CCN6CCC(C(=O)OCCCP(=O)(O)O)CC6)CSc6ccccc6)c(S(=O)(=O)C(F)(F)F)c5)cc4)CC3)c2)c(-c2ccc(Cl)cc2)n1C(C)C [Amorphous form XV of maleate salt] | 0.79 | 0.89 | 1.23 | 0.73 | 1.33 | 1.94 | 1.59 | 2.59 | 7.00 | – |
| Cc1c(S(C)(=O)=O)c(-c2cc(F)cc(N3CCN(c4ccc(NS(=O)(=O)c5ccc(N[C@H](CCN6CCC(C(=O)OCCCP(=O)(O)O)CC6)CSc6ccccc6)c(S(=O)(=O)C(F)(F)F)c5)cc4)CC3)c2)c(-c2ccc(Cl)cc2)n1C(C)C [Amorphous XIV] | – | – | – | – | – | – | – | – | – | Hygroscopicity classification ([2]; DVS, 80% RH): Hygroscopic; Moisture gain (80% RH) ([2]; DVS, 80% RH): 4.83%; water absorption during storage ([2]; conclusion from DVS): easily absorb water; physical and chemical stability (summary statement) [3]: good physical and chemical stability; Content(%) ([3]; 0 Days): 99.5%; Total impurities (%) ([3]; 0 Days): 0.39%; Content(%) ([3]; 5 Days, 40° C.): 100.3%; Total impurities (%) ([3]; 5 Days, 40° C.): 0.59%; Content(%) ([3]; 5 Days, high humidity 92.5% RH): 100.7%; Total impurities (%) ([3]; 5 Days, high humidity 92.5% RH): 0.37%; Content(%) ([3]; 5 Days, light): 100.4%; Total impurities (%) ([3]; 5 Days, light): 0.43%; Content(%) ([3]; 10 Days, 40° C.): 99.7%; Total impurities (%) ([3]; 10 Days, 40° C.): 0.64%; Content(%) [3, 7]: 99.7%; Total impurities (%) [3, 7]: 0.39%; Content(%) ([3]; 10 Days, light): 100.1%; Total impurities (%) ([3]; 10 Days, light): 0.41%; stability under high humidity and light conditions ([3]; packed with nitrogen, shading, moisture-proof): stable; stability to heat ([3]; packed with nitrogen, shading, moisture-proof, 40° C.): sensitive to heat |
| Cc1c(S(C)(=O)=O)c(-c2cc(F)cc(N3CCN(c4ccc(NS(=O)(=O)c5ccc(N[C@H](CCN6CCC(C(=O)OCCCP(=O)(O)O)CC6)CSc6ccccc6)c(S(=O)(=O)C(F)(F)F)c5)cc4)CC3)c2)c(-c2ccc(Cl)cc2)n1C(C)C [Amorphous form XIII of sodium salt] | 1.89 | 1.94 | 2.29 | 1.65 | 2.20 | 3.55 | 2.45 | 3.08 | 6.31 | – |
| Cc1c(S(C)(=O)=O)c(-c2cc(F)cc(N3CCN(c4ccc(NS(=O)(=O)c5ccc(N[C@H](CCN6CCC(C(=O)OCCCP(=O)(O)O)CC6)CSc6ccccc6)c(S(=O)(=O)C(F)(F)F)c5)cc4)CC3)c2)c(-c2ccc(Cl)cc2)n1C(C)C [Crystal form VI] | – | – | – | – | – | – | – | – | – | physical and chemical stability (summary statement) [4]: good physical and chemical stability; change of purity and crystal form ([4]; 25° C./60% RH and 40° C./75% RH for one week): did not change significantly; HPLC purity (Peak area %) ([4]; 25° C./60% RH, one week): 99.01 Peak area %; Solid crystal form ([4]; 25° C./60% RH, one week): Crystal form VI; HPLC purity (Peak area %) ([4]; 40° C./75% RH, one week): 99.06 Peak area %; Solid crystal form ([4]; 40° C./75% RH, one week): Crystal form VI; HPLC purity (Peak area %) ([4]; Initial sample): 99.02 Peak area %; Solid crystal form ([4]; Initial sample): Crystal form VI |
